Key:
Assay in all cases: Cell proliferation WST-1 assay, single dose (Example 4)
Type in all cases: cell-based
Conditions in all cases: 100 μM, 48 hours
[1] = system: HeLa cervical carcinoma cells
Procedure: (§1) In addition, compounds were tested in RPMI-7951 cells, which also contain mutated BRaf and are resistant to BRaf inhibitors due to the overexpression of MAP3K8 (the gene encoding COT/Tp12) that provides an alternative mechanism to indirectly or directly activate ERK proteins. […] For comparison, HeLa cervical carcinoma and Jurkat T-cell leukemia cells, which are p53 defective cancer cell lines but contain no known activating mutations in the ERK pathway, were studied. […] Cell proliferation was evaluated by water soluble tetrazolium-1 (WST-1) assay as previously described. Briefly, cells (˜5000/well) were seeded in 96 well plates, allowed to recover for 16-20 hours, and then treated with the indicated test compound for 48 hours. After incubation, WST-1 reagent was added and absorbance was read at 450 nm with background subtraction taken at 650 nm. Values were normalized to the control (DMSO only treated) cells.

SK-MEL-28 melanoma cells = system: SK-MEL-28 melanoma cells
Procedure: as §1

RPMI-7951 melanoma cells = system: RPMI-7951 melanoma cells
Procedure: as §1

A375 melanoma cells = system: A375 melanoma cells
Procedure: as §1

[2] = system: Jurkat T-cell leukemia cells
Procedure: as §1

HL-60 leukemic cells = system: HL-60 leukemic cells
Procedure: as §1

Row | SMILES | Cell Viability (% of Vehicle) HeLa [1] | Cell Viability (% of Vehicle) SK-MEL-28 (SK-MEL-28 melanoma cells) | Cell Viability (% of Vehicle) RPMI-7951 (RPMI-7951 melanoma cells) | Cell Viability (% of Vehicle) A375 (A375 melanoma cells) | Cell Viability (% of Vehicle) Jurkat [2] | Cell Viability (% of Vehicle) HL-60 (HL-60 leukemic cells)
1 | CCOc1ccc(/C=C2\SC(=O)NC2=O)cc1 [Compound 2, (Z)-5-(4-ethoxybenzylidene)thiazolidine-2,4-dione] | 98 ± 13 % of Vehicle | 103 ± 1 % of Vehicle | 144 ± 2 % of Vehicle | 110 ± 10 % of Vehicle | 104 ± 4 % of Vehicle | 103 ± 16 % of Vehicle
2 | CCOc1ccc(CC2SC(=O)N(CCN)C2=O)cc1 (stereo not drawn) [Compound 6, 3-(2-aminoethyl)-5-(4-ethoxybenzyl)thiazolidine-2,4-dione] | 90 ± 4 % of Vehicle | 88 ± 3 % of Vehicle | 70 ± 5 % of Vehicle | 92 ± 6 % of Vehicle | 108 ± 10 % of Vehicle | 41 ± 17 % of Vehicle
3 | CCOc1ccc(/C=C2\SC(=S)N(CCN)C2=O)cc1 [Compound 9, (Z)-3-(2-aminoethyl)-5-(4-ethoxybenzylidene)-2-thioxothiazolidin-4-one] | 26 ± 6 % of Vehicle | 45 ± 7 % of Vehicle | 3.3 ± 2 % of Vehicle | 21 ± 10 % of Vehicle | 52 ± 4 % of Vehicle | 7.9 ± 3 % of Vehicle
4 | CCOc1ccc(/C=C2\CC(=O)N(CCN)C2=O)cc1 [Compound 13, (E)-1-(2-aminoethyl)-3-(4-ethoxybenzylidene)pyrrolidine-2,5-dione] | 75 ± 2 % of Vehicle | 65 ± 4 % of Vehicle | 19 ± 5 % of Vehicle | 29 ± 3 % of Vehicle | 100 ± 10 % of Vehicle | 58 ± 28 % of Vehicle
5 | CCOc1ccc(/C=C2\CCN(CCN)C2=O)cc1 [Compound 17, (E)-1-(2-aminoethyl)-3-(4-ethoxybenzylidene)pyrrolidin-2-one] | 89 ± 4 % of Vehicle | 79 ± 6 % of Vehicle | 96 ± 3 % of Vehicle | 95 ± 2 % of Vehicle | 92 ± 2 % of Vehicle | 73 ± 9 % of Vehicle
6 | CCOc1ccc(/C=C/C(=O)NCCN)cc1 [Compound 20, (E)-N-(2-aminoethyl)-3-(4-ethoxyphenyl)acrylamide] | 94 ± 5 % of Vehicle | 83 ± 4 % of Vehicle | 93 ± 9 % of Vehicle | 81 ± 5 % of Vehicle | 89 ± 7 % of Vehicle | 59 ± 25 % of Vehicle
7 | CCOc1ccc(/C=C2\SC(=O)N(CC(C)N)C2=O)cc1 (stereo not drawn) [Compound 22b, (Z)-3-(2-aminopropyl)-5-(4-ethoxybenzylidene)thiazolidine-2,4-dione] | 49 ± 7 % of Vehicle | 32 ± 4 % of Vehicle | 16 ± 1 % of Vehicle | 25 ± 4 % of Vehicle | 58 ± 10 % of Vehicle | 7.3 ± 3 % of Vehicle
8 | CCOc1ccc(/C=C2\SC(=O)N(C(C)CN)C2=O)cc1 (stereo not drawn) [Compound 22c, (Z)-3-(1-aminopropan-2-yl)-5-(4-ethoxybenzylidene)thiazolidine-2,4-dione] | 45 ± 7 % of Vehicle | 28 ± 4 % of Vehicle | 22 ± 3 % of Vehicle | 13 ± 2 % of Vehicle | 54 ± 10 % of Vehicle | 8.1 ± 3 % of Vehicle
9 | CCOc1ccc(/C=C2\SC(=O)N(C[C@H](N)C(=O)OC)C2=O)cc1 [Compound 22d, (S,Z)-methyl 2-amino-3-(5-(4-ethoxybenzylidene)-2,4-dioxothiazolidin-3-yl)propanoate] | 87 ± 4 % of Vehicle | 33 ± 9 % of Vehicle | 1.8 ± 0.1 % of Vehicle | 41 ± 11 % of Vehicle | 100 ± 5 % of Vehicle | 25 ± 5 % of Vehicle
10 | CCOc1ccc(/C=C2\SC(=O)N(C(CN)CN)C2=O)cc1 [Compound 22e, (Z)-3-(1,3-diaminopropan-2-yl)-5-(4-ethoxybenzylidene)thiazolidine-2,4-dione] | 62 ± 2 % of Vehicle | 32 ± 2 % of Vehicle | 25 ± 3 % of Vehicle | 19 ± 4 % of Vehicle | 81 ± 9 % of Vehicle | 11 ± 4 % of Vehicle
11 | CCOc1ccc(/C=C2\SC(=O)N(CCNC)C2=O)cc1 [Compound 23a, (Z)-5-(4-ethoxybenzylidene)-3-(2-(methylamino)ethyl)thiazolidine-2,4-dione] | 85 ± 4 % of Vehicle | 91 ± 1 % of Vehicle | 54 ± 7 % of Vehicle | 95 ± 2 % of Vehicle | 83 ± 6 % of Vehicle | 17 ± 11 % of Vehicle
12 | CCNCCN1C(=O)S/C(=C\c2ccc(OCC)cc2)C1=O [Compound 23b, (Z)-5-(4-ethoxybenzylidene)-3-(2-(ethylamino)ethyl)thiazolidine-2,4-dione] | 81 ± 2 % of Vehicle | 63 ± 10 % of Vehicle | 60 ± 4 % of Vehicle | 51 ± 4 % of Vehicle | 69 ± 10 % of Vehicle | 14 ± 4 % of Vehicle
13 | CCOc1ccc(/C=C2\SC(=O)N(CCNCC(C)C)C2=O)cc1 [Compound 23c, (Z)-5-(4-ethoxybenzylidene)-3-(2-(isobutylamino)ethyl)thiazolidine-2,4-dione] | 3.7 ± 0.4 % of Vehicle | 1.3 ± 0.1 % of Vehicle | 1.0 ± 0.1 % of Vehicle | 1.0 ± 0.1 % of Vehicle | 2.5 ± 0.1 % of Vehicle | 10 ± 4 % of Vehicle
14 | CCOc1ccc(/C=C2\SC(=O)N(CCNCc3ccccc3)C2=O)cc1 [Compound 23d, (Z)-3-(2-(benzylamino)ethyl)-5-(4-ethoxybenzylidene)thiazolidine-2,4-dione] | 37 ± 1 % of Vehicle | 25 ± 6 % of Vehicle | 2.5 ± 0.3 % of Vehicle | 13 ± 1 % of Vehicle | 89 ± 4 % of Vehicle | 5.0 ± 2 % of Vehicle
15 | CCOc1ccc(/C=C2\SC(=O)N(CCNCc3ccc(C#N)cc3)C2=O)cc1 [Compound 23e, (Z)-4-(((2-(5-(4-ethoxybenzylidene)-2,4-dioxothiazolidin-3-yl)ethyl)amino)methyl)benzonitrile] | 88 ± 2 % of Vehicle | 96 ± 6 % of Vehicle | 96 ± 5 % of Vehicle | 89 ± 3 % of Vehicle | 98 ± 5 % of Vehicle | 75 ± 25 % of Vehicle
16 | CCOc1ccc(/C=C2\SC(=O)N(CCN(C)C)C2=O)cc1 [Compound 24a, (Z)-3-(2-(dimethylamino)ethyl)-5-(4-ethoxybenzylidene)thiazolidine-2,4-dione] | 90 ± 5 % of Vehicle | 101 ± 0.3 % of Vehicle | 130 ± 4 % of Vehicle | 115 ± 2 % of Vehicle | 95 ± 1 % of Vehicle | 110 ± 14 % of Vehicle
17 | CCOc1ccc(/C=C2\SC(=O)N(CCN(Cc3ccccc3)Cc3ccccc3)C2=O)cc1 [Compound 24b, (Z)-3-(2-(dibenzylamino)ethyl)-5-(4-ethoxybenzylidene)thiazolidine-2,4-dione] | 92 ± 9 % of Vehicle | 104 ± 4 % of Vehicle | 120 ± 3 % of Vehicle | 122 ± 7 % of Vehicle | 104 ± 2 % of Vehicle | 109 ± 24 % of Vehicle
18 | CCOc1ccc(/C=C2\SC(=O)N(CCN(Cc3ccc(C#N)cc3)Cc3cccc(C#N)c3)C2=O)cc1 [Compound 24c, (Z)-3-(((4-cyanobenzyl)(2-(5-(4-ethoxybenzylidene)-2,4-dioxothiazolidin-3-yl)ethyl)amino)methyl)benzonitrile] | 97 ± 8 % of Vehicle | 107 ± 3 % of Vehicle | 108 ± 9 % of Vehicle | 115 ± 1 % of Vehicle | 100 ± 2 % of Vehicle | 108 ± 16 % of Vehicle

Reference: US9115122B2, “Non-ATP dependent inhibitors of extracellular signal-regulated kinase (ERK)” (UNIVERSITY OF MARYLAND, BALTIMORE, priority 2012, dated 2015)
